Measurements published in paper PMC8907714, “Antimicrobial property of Pichia pastoris‐derived natto peptide against foodborne bacteria and its preservative potential to maintain pork quality during refrigerated storage” (Food Science & Nutrition, 2022).

Columns and labels:
E. coli O157 = experiment: Time‐killing curve; assay type: cell-based, Escherichia coli; settings: gentamicin positive control, concentration not given
Procedure: Time‐killing curves were obtained as described previously to evaluate the bactericidal rates of natto peptide (Dong & Sun, [2021]). Concisely, the natto peptide at final concentrations of 1×, 2×, and 4× MICs was incubated with E. coli O157, which was cultured to midlog phase. Then, the culture samples were harvested at different time intervals for colony counting. PBS buffer and gentamicin were used as negative and positive controls. All the experiments were performed in triplicate.

[1] = test system: total bacteria, Staphylococcus spp., Escherichia spp., and Pseudomonas spp.; experiment: Microbial growth in pork during refrigerated storage, colony count; settings: pork soaked 20 min, natto peptide 30, 60, 90 μg/ml, nisin 50 μg/ml, butyl paraben 100 μg/ml, 4°C, 8‐day storage
Procedure: Fresh‐pork legs were bought from a local butcher (Binzhou, China) 24 h postmortem. The connective tissue and fat of the pork were removed before cutting into even slices (5 ± 0.1 g). Afterwards, the slices were soaked in 0, 30, 60, and 90 μg/ml of natto peptide for 20 min. Then, the slices were drained and placed in sterilized polyvinyl chloride trays, sealed using a polyethylene film, and stored at 4°C in a refrigerator for 8 days. Meanwhile, 50 μg/ml of nisin and 100 μg/ml of butyl paraben were used as positive controls to analyze the aseptic effects of natto peptide, including microbial growth, TVB‐N, lipid oxidation, pH, drip loss, and sensory quality during storage.
The microbial growth of pork was determined by colony count, as described previously (Meng et al., [2021]). In brief, after the pork sample (5 g) was homogenized with 0.9% sterilized saline buffer (25 ml), 100 μl of the 10× diluent was spread on plate‐count agar, mannitol‐salt agar, violet red bile agar, and centrimide (CN) agar, and incubated at a suitable temperature for 48 h. All experiments were performed three times.

Molecule	time until bacteria were completely killed (E. coli O157) [h]	bacterial growth in pork compared with control [1]
CNC(C)C1CCC(N)C(OC2C(N)CC(N)C(OC3OCC(C)(O)C(NC)C3O)C2O)O1 (stereo not drawn) [gentamicin]	1.5	
Nisin		moderate inhibitory effect
CCCCOC(=O)c1ccc(O)cc1 [Butyl paraben]		effective inhibition function
